Assay results published in patent publication US11236106B2, “Cycloalkane-1,3-diamine derivative” (Daiichi Sankyo Company, Limited, priority 2018, dated 2022).
Counter-ions that a name gives are not always drawn.

Target: T1, menin and MLL (menin, Flag tagged; biotinylated MLL1 peptide 1-46aa) (Homo sapiens, UniProt O00255)
T1 sequence (O00255 1-610): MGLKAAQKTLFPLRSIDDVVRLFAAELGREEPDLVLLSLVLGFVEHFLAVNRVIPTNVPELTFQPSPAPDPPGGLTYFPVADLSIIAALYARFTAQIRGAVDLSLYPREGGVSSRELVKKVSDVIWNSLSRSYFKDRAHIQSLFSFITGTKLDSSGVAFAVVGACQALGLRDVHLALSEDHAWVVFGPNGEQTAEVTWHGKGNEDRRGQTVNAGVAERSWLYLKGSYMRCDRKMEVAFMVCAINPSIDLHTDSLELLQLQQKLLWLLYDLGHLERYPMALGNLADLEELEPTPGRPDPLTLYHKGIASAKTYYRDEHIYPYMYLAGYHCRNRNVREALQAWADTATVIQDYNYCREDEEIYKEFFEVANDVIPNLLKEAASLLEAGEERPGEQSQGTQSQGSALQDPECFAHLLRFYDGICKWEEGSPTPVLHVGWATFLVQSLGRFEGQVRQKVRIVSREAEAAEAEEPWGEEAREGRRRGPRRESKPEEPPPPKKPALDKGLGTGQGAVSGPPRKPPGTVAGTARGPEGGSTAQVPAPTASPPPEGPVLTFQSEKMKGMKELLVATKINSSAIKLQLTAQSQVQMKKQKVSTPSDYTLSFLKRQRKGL
Assay: biochemical
Conditions: 1 nM menin, 10 nM biotinylated MLL1 peptide, AlphaLISA

[1] = IC50, binding inhibitory activity between menin and MLL

Procedure: Then, the fluorescence signal by AlphaLISA (registered trademark, PerkinElmer Co., Ltd.) was measured using a plate reader (PerkinElmer Co., Ltd., EnVisionXcite).

| SMILES | IC50 (cell free IC50 (nM)) [nM] | IC50 [1] [nM] |
| --- | --- | --- |
| C=CC(=O)NCCCNC(=O)c1ccc(CN[C@H]2CC[C@@H](N(C)c3ncnc4sc(CC(F)(F)F)cc34)C2)cc1 [Example 6, 4-({[(1S,3R)-3-{methyl[6-(2,2,2-trifluoroethyl)thieno[2,3-d]pyrimidin-4-yl]amino}cyclopentyl]amino}methyl)-N-{3-[(prop-2-enoyl)amino]propyl}benzamide Hydrochloride] | 81.9 | – |
| [2H]C([2H])([2H])Oc1cc(-c2ccc(CN[C@H]3C[C@@H](O)[C@@H](N(C)c4nc(OC)nc5sc(CC(F)(F)F)cc45)C3)cc2)nnc1OC([2H])([2H])[2H] [Example 123, (1R,2S,4R)-4-{[(4-{5,6-bis[(^2H3)methyloxy]pyridazin-3-yl}phenyl)methyl}amino}-2-{[2-methoxy-6-(2,2,2-trifluoroethyl)thieno[2,3-d]pyrimidin-4-yl](methyl}amino}cyclopentan-1-ol] | – | 0.6 |
| FC(F)(F)Cc1cc2c(N[C@@H]3CCC[C@H](NCc4ccc(-c5nnc[nH]5)cc4)C3)ncnc2s1 [Example 37, (1S,3R)-N^1-{[4-(4H-1,2,4-triazol-3-yl)phenyl]methyl}-N^3-[6-(2,2,2-trifluoroethyl)thieno[2,3-d]pyrimidin-4-yl]cyclohexane-1,3-diamine hydrochloride] | 701 | – |
| N#Cc1cc2cc(CN[C@@H]3CC[C@@H](Nc4ncnc5sc(CC(F)(F)F)cc45)C3)ccc2[nH]1 [Example 1, 5-({[(1R,3R)-3-{[6-(2,2,2-trifluoroethyl)thieno[2,3-d]pyrimidin-4-yl]amino}cyclopentyl]amino}methyl)-1H-indole-2-carbonitrile Hydrochloride] | 494 | – |
| CN(c1ncnc2sc(CC(F)(F)F)cc12)[C@@H]1CC[C@H](NCc2ccc(-c3cnc4ccoc4c3)cc2)C1 [Example 14, (1R,3S)—N^3-{[4-(furo[3,2-b]pyridin-6-yl)phenyl]methyl}-N^1-methyl-N^1-[6-(2,2,2-trifluoroethyl)thieno[2,3-d]pyrimidin-4-yl]cyclopentane-1,3-diamine Hydrochloride] | 27.4 | – |
| CNc1nc(N(C)[C@H]2C[C@@H](NCc3ccc(Nc4cccnc4)cc3)C[C@@H]2O)c2cc(CC(F)(F)F)sc2n1 [Example 54, (1S,2S,4R)-2-{methyl[2-(methylamino)-6-(2,2,2-trifluoroethyl)thieno[2,3-d]pyrimidin-4-yl]amino}-4-[({4-[(pyridin-3-yl)amino]phenyl}methyl)amino]cyclopentan-1-ol hydrochloride] | 1 | – |
| COc1cncc(-c2ccc(CN[C@@H]3C[C@H](N(C)c4ncnc5sc(CC(F)(F)F)cc45)[C@H](O)[C@@H]3O)cc2)c1 [Example 20A, (1S,2R,3R,5S)-3-({[4-(5-methoxypyridin-3-yl)phenyl]methyl}amino)-5-{methyl[6-(2,2,2-trifluoroethyl)thieno[2,3-d]pyrimidin-4-yl]amino}cyclopentane-1,2-diol Hydrochloride] | 3.9 | – |
| CN(c1ncnc2sc(CC(F)(F)F)nc12)[C@@H]1CC[C@H](NCc2ccc3[nH]c(C#N)cc3c2)C1 [Example 3, 5-({[(1S,3R)-3-{methyl[2-(2,2,2-trifluoroethyl)[1,3]thiazolo[5,4-d]pyrimidin-7-yl]amino}cyclopentyl]amino}methyl)-1H-indole-2-carbonitrile Hydrochloride] | 81.8 | – |
| COc1nc(N(C)[C@H]2C[C@@H](NCc3ccc(-c4cnc(F)c(OC)c4)cc3)C[C@H]2O)c2cc(CC(F)(F)F)sc2n1 [Example 91, (1R,2S,4R)-4-({[4-(6-fluoro-5-methoxypyridin-3yl)phenyl]methyl}amino)-2{[2-methoxy6-(2,2,2-trifluoroethyl)thieno[2,3-d]pyrimidin-4-yl](methyl)amino}cyclopentan-1-ol hydrochloride] | – | 1.3 |
| COc1cncc(-c2ccc(CN[C@H]3C[C@@H](O)C[C@@H](Nc4ncnc5sc(CC(F)(F)F)cc45)C3)cc2)c1 (single isomer, unassigned) [Example 15A, Hydrochloride] | 21.6 | – |
